Source: patent US8628762B2, “T-helper cell type 17 lineage-specific adjuvants, compositions and methods” (Icahn School of Medicine at Mount Sinai, priority 2008, dated 2014)
Entries after “also recorded” stand apart in the source; their conditions may differ.

Columns and labels:
A20 cells = experiment: Inhibition of anti-Fas induced apoptosis, Annexin-V/7-AAD flow cytometry; type: cell-based; conditions: anti-Fas (anti-CD95), four hours, Annexin V/7AAD staining
[1] = tested on: intestinal epithelial cells; experiment: TUNEL staining of colon sections of C. rodentium infected mice; type: in vivo, C3H/HeOuJ mice; conditions: 20 mg/kg intraperitoneally on days 0, 1, 2, 3, and 5, colons day 6
Description: Colons of C3H/HeOuJ mice were harvested on day 6 and flushed with PBS. Tissues were fresh-frozen in O.C.T. Compound (Sakura Finetek, Zoeterwoude, The Netherlands) and stored at −80° C. Sections of 6 μm were cut and fixed with either 4% paraformaldehyde or ice-cold acetone for 1 h, dried, and stored at −20° C. TUNEL staining was performed using the In Situ Cell Death Detection Kit, TMR Red (Roche) according to manufacturer's instructions. For immunostaining, sections were blocked and incubated with primary antibodies in a humidified atmosphere for 1 hour at room temperature. After washing, conjugated secondary antibodies were added for 35 minutes. The slides were then washed and mounted with Fluoromount-G (Southern Biotech, Birmingham, Ala.). […] Analyses were performed using 10× and 20× dry objectives on a Nikon Eclipse E-600 fluorescence microscope and Adobe® Photoshop® software (Adobe Systems, San Jose, Calif.).
(§1) WT and mutant C. rodentium were prepared by incubation with shaking at 37° C. for 8 hours in LB broth medium. After 8 hours, the bacterial density was assessed at an optical density of 600 nm and confirmed by plating of serial dilutions. […]

[2] = tested on: IL-17+ CD4 T-cells in the lamina propria; experiment: IL-17+ CD4 T-cells in lamina propria of C. rodentium infected mice (flow cytometry); type: in vivo, C57BL/6J and C3H/HeOuJ mice
Description: (§2) The small intestines and colons of C57BL/6J or C3H/HeOuJ mice were harvested at the indicated times. […] To prepare IEL/LPL, small intestines and colons were flushed with HBSS medium without calcium or magnesium (Gibco). Intestines were cut longitudinally and washed twice briefly in HBSS, 2% FBS in 6-well plates and then placed in 15 mL ice-cold HBSS, 2% FBS in 50-mL conical tubes and vortexed at maximum setting for 15-20 seconds. Tissue was removed using long forceps into a new tube with 15 mL ice-cold HBSS, 2% FBS and vortexed again twice, for a total of three washes. The tissues were then placed in 50-mL conical tubes containing 25 mL, HBSS, 5% FBS, and 1 mM DTT (Sigma-Aldrich). Tubes were incubated on a rocker at 37° C. for 20 minutes followed by vortexing extensively at maximum setting. For IEL, fractions were collected after two rounds of 20 minutes in HBSS/FBS/DTT. Tissues were then placed in fresh tubes containing 25 mL of PBS with 1.3 mM EDTA, incubated on a rocker for 60 minutes at 37° C. and vortexed. […]
as §1

[3] = tested on: caspase-9 and caspase-3, caspase-8 and caspase-10, and caspase-12; conditions: cited from earlier work
[4] = tested on: infection induced barrier function; conditions: cited from earlier work
[5] = tested on: IL-17+ CD4 T-cells in lamina propria; experiment: DSS-induced damage of the intestinal epithelium, IL-17+ CD4 T-cells in lamina propria lymphocytes; type: in vivo, C57BL/6 mice; conditions: DSS in water for seven days, sacrificed on day 9, small intestines and colons
Description: as §2, §1

Compound	Fas-induced apoptosis (A20 cells)	numbers of TUNEL+ cells [1]	number of IL-17+ CD4 T-cells ([2]; C. rodentium infected C57BL/6J mice)	number of IL-17+ CD4 T-cells ([2]; both strains of C. rodentium infected mice)	prevention of apoptosis by pathway ([3]; caspase-9 and caspase-3, caspase-8 and caspase-10, and caspase-12 pathways)	prevention of apoptosis compared with other caspase inhibitors [3]	toxicity to cells [3]	effect on infection induced barrier function [4]	IL-17+ CD4 T-cells [5]
CC(C)[C@H](NC(=O)c1ccc2ccccc2n1)C(=O)N[C@@H](CC(=O)O)C(=O)COc1c(F)cccc1F [Q-VD-OPH]	protected from undergoing Fas-induced apoptosis; also recorded: inhibits apoptosis	decreased numbers of TUNEL^+ cells	levels similar to those found in uninfected mice	profoundly diminished the number of IL-17^+ CD4 T-cells	equally effective in preventing apoptosis mediated by the three major apoptotic pathways	significantly more effective in preventing apoptosis than ZVAD-fmk and Boc-D-fmk	not toxic to cells even at extremely high concentrations	has no effects on infection induced barrier function	–
dextran sulfate sodium [dextran sulfate sodium (DSS)]	–	–	–	–	–	–	–	–	did not increase IL-17^+ CD4 T-cells over uninfected controls
